Reference: patent publication US20210261512A1, “NOVEL COMPOUNDS” (INFLAZOME LIMITED, priority 2018, published 2021)
pIC50: −log10 of the molar value.

Assays:
NLRP3 [1] = target: T1, NLRP3 (Homo sapiens, UniProt Q96P20); assay: Human whole blood IL1β release assay; type: cell-based; details: LPS 1 μg/ml, nigericin 10 μM, IL-1β AlphaLisa, 10 μM top dose (Example 2: top dose of 30 μM), read-out: HWB IC50
Summary of the method: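 Healthy-donor heparinised human whole blood with 1 μg/ml LPS, compound (8-point half-log dilution, 10 μM top dose unless stated; 0.1% DMSO vehicle) for 3 h at 37 °C, then nigericin 10 μM final for 1 h. Supernatant IL-1β by AlphaLISA; IC50 from 4-parameter variable-slope fit.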

NLRP3 [2] = target: T1, NLRP3; assay: THP-1 cells pyroptosis assay; type: cell-based; parameters: Seed THP-1 cells (25,000 cells/well) containing 1.0 μg/ml LPS; host or cells: THP-1; details: LPS 1.0 μg/ml, nigericin 5 μM, resazurin readout, 10 μM top dose (Example 2: top dose of 30 μM)
Summary of the method: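 Pyroptosis induced by 5 μM nigericin (1 h) in LPS-primed (1 μg/ml) THP-1 cells, 25,000/well in serum-free RPMI, after 3 h compound pre-treatment (8 points, 10 μM top unless stated). Surviving cells measured with 100 μM resazurin, Ex 560/Em 590; IC50 via variable-slope 4-parameter regression.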

T1 sequence (Q96P20 whole entry): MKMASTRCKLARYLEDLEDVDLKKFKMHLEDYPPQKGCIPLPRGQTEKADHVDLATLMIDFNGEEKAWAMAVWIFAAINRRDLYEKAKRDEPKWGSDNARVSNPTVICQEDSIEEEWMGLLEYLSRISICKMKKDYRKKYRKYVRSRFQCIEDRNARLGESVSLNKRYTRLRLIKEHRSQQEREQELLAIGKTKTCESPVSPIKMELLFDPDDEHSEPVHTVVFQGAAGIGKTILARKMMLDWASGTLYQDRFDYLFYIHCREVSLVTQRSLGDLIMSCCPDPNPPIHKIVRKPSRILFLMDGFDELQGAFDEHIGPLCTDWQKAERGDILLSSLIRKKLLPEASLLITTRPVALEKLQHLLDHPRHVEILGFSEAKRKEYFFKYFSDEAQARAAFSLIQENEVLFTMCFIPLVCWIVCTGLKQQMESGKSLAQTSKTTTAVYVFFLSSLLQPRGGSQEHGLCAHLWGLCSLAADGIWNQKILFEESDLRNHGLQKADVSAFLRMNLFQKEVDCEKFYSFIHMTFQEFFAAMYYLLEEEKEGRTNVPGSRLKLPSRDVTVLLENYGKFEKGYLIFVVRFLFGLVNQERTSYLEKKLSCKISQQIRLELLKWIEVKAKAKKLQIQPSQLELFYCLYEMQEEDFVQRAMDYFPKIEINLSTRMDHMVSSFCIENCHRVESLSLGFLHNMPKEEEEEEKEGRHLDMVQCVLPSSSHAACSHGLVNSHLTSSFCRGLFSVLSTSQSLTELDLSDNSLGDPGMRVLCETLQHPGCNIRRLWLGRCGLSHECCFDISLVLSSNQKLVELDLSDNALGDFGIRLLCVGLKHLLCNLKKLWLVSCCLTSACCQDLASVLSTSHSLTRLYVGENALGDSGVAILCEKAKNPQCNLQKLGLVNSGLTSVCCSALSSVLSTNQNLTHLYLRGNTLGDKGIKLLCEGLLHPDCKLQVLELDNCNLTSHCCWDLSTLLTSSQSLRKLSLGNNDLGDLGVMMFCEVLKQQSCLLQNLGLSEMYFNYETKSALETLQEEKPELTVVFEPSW

| pIC50 (NLRP3 [1]) | pIC50 (NLRP3 [2]) | SMILES |
| --- | --- | --- |
| ≥ 6.00 | ≥ 6.30 | CNC[C@H]1CCN(S(=O)(=O)c2nnc(Nc3c4c(cc5c3CCC5)CCC4)[nH]2)C1 [Example 288, (R)—N-(1,2,3,5,6,7-hexahydro-s-indacen-4-yl)-5-((3-((methylamino)methyl)pyrrolidin-1-yl)sulfonyl)-4H-1,2,4-triazol-3-amine] |
| ≥ 5.30 | ≥ 6.00 | CC(C)(O)C1CCN(S(=O)(=O)c2nnc(Nc3c4c(cc5c3CCC5)CCC4)[nH]2)C1 (stereo not drawn) [Example 289, 2-(1-((5-((1,2,3,5,6,7-hexahydro-s-indacen-4-yl)amino)-4H-1,2,4-triazol-3-yl)sulfonyl)pyrrolidin-3-yl)propan-2-ol] |
| ≥ 5.30 | ≥ 5.30 | CC(CNS(=O)(=O)c1nnc(Nc2c3c(cc4c2CCC4)CCC3)[nH]1)N(C)C (stereo not drawn) [Example 290, N-(2-(dimethylamino)propyl)-5-((1,2,3,5,6,7-hexahydro-s-indacen-4-yl)amino)-4H-1,2,4-triazole-3-sulfonamide] |
| ≥ 6.30 | ≥ 6.30 | CN(C)CC1CN(S(=O)(=O)c2nnc(Nc3c4c(cc5c3CCC5)CCC4)[nH]2)C1 [Example 291, 5-((3-((dimethylamino)methyl)azetidin-1-yl)sulfonyl)-N-(1,2,3,5,6,7-hexahydro-s-indacen-4-yl)-4H-1,2,4-triazol-3-amine] |
| ≥ 5.30 | ≥ 5.30 | CC1(O)CCN(S(=O)(=O)c2nnc(Nc3c4c(cc5c3CCC5)CCC4)[nH]2)CC1 [Example 292, 1-((5-((1,2,3,5,6,7-hexahydro-s-indacen-4-yl)amino)-4H-1,2,4-triazol-3-yl)sulfonyl)-4-methylpiperidin-4-ol] |
| ≥ 5.00 | ≥ 6.30 | CC(C)(O)C1CCN(S(=O)(=O)c2nnc(Nc3c4c(cc5c3CCC5)CCC4)[nH]2)CC1 [Example 293, 2-(1-((5-((1,2,3,5,6,7-hexahydro-s-indacen-4-yl)amino)-4H-1,2,4-triazol-3-yl)sulfonyl)piperidin-4-yl)propan-2-ol] |
| ≥ 5.30 | ≥ 6.30 | CN1CCCNC(=O)C12CCN(S(=O)(=O)c1nnc(Nc3c4c(cc5c3CCC5)CCC4)[nH]1)CC2 [Example 294, 3-((5-((1,2,3,5,6,7-hexahydro-s-indacen-4-yl)amino)-4H-1,2,4-triazol-3-yl)sulfonyl)-7-methyl-3,7,11-triazaspiro[5.6]dodecan-12-one] |
| ≥ 6.00 | ≥ 6.30 | CN1CCOC2(C1)CN(S(=O)(=O)c1nnc(Nc3c4c(cc5c3CCC5)CCC4)[nH]1)C2 [Example 295, N-(1,2,3,5,6,7-hexahydro-s-indacen-4-yl)-5-((8-methyl-5-oxa-2,8-diazaspiro[3-5]nonan-2-yl)sulfonyl)-4H-1,2,4-triazol-3-amine] |
| ≥ 5.30 | ≥ 6.30 | COc1cc(-c2cc(F)cc(C3CC3)c2Nc2nnc(S(=O)(=O)N3CCC(N(C)C)CC3)[nH]2)ccn1 [Example 301, 1-((5-((2-cyclopropyl-4-fluoro-6-(2-methoxypyridin-4-yl)phenyl)amino)-1H-1,2,4-triazol-3-yl)sulfonyl)-N,N-dimethylpiperidin-4-amine] |
| ≥ 6.00 | ≥ 6.30 | CN(C)CC1CCN(S(=O)(=O)c2nnc(Nc3c4c(cc5c3CCC5)CCC4)[nH]2)CC1 [Example 304, 5-((4-((dimethylamino)methyl)piperidin-1-yl)sulfonyl)-N-(1,2,3,5,6,7-hexahydro-s-indacen-4-yl)-4H-1,2,4-triazol-3-amine] |
| ≥ 5.30 | ≥ 5.30 | CN(C)CC1CCCN(S(=O)(=O)c2nnc(Nc3c4c(cc5c3CCC5)CCC4)[nH]2)C1 (stereo not drawn) [Example 305, 5-((3-((dimethylamino)methyl)piperidin-1-yl)sulfonyl)-N-(1,2,3,5,6,7-hexahydro-s-indacen-4-yl)-4H-1,2,4-triazol-3-amine] |
| ≥ 6.00 | ≥ 6.00 | O=S(=O)(c1nnc(Nc2c3c(cc4c2CCC4)CCC3)[nH]1)N1CC[C@H](CN2CCCC2)C1 [Example 306, (R)—N-(1,2,3,5,6,7-hexahydro-s-indacen-4-yl)-5-((3-(pyrrolidin-1-ylmethyl)pyrrolidin-1-yl)sulfonyl)-4H-1,2,4-triazol-3-amine] |
| ≥ 5.00 | ≥ 6.00 | O=S(=O)(c1nnc(Nc2c3c(cc4c2CCC4)CCC3)[nH]1)N1CC[C@H](CNC2CC2)C1 [Example 307, (R)-5-((3-((cyclopropylamino)methyl)pyrrolidin-1-yl)sulfonyl)-N-(1,2,3,5,6,7-hexahydro-s-indacen-4-yl)-4H-1,2,4-triazol-3-amine] |
| ≥ 5.30 | ≥ 6.30 | CCNC[C@H]1CCN(S(=O)(=O)c2nnc(Nc3c4c(cc5c3CCC5)CCC4)[nH]2)C1 [Example 308, (R)-5-((3-((ethylamino)methyl)pyrrolidin-1-yl)sulfonyl)-N-(1,2,3,5,6,7-hexahydro-s-indacen-4-yl)-4H-1,2,4-triazol-3-amine] |
| ≥ 5.30 | ≥ 6.00 | Cc1cc2c(c(Nc3nnc(S(C)(=O)=O)[nH]3)c1-c1ccnc(OC3CCN(C)CC3)c1)CCC2 [Example 317, N-(6-methyl-5-(2-((1-methylpiperidin-4-yl)oxy)pyridin-4-yl)-2,3-dihydro-1H-inden-4-yl)-5-(methylsulfonyl)-4H-1,2,4-triazol-3-amine] |
| ≥ 5.30 | ≥ 6.30 | Cc1cc2c(c(Nc3nnc(S(=O)(=O)c4ccccc4)[nH]3)c1-c1ccnc(OC3CCN(C)CC3)c1)CCC2 [Example 318, N-(6-methyl-5-(2-((1-methylpiperidin-4-yl)oxy)pyridin-4-yl)-2,3-dihydro-1H-inden-4-yl)-5-(phenylsulfonyl)-4H-1,2,4-triazol-3-amine] |
| ≥ 5.00 | ≥ 6.30 | COc1cc(-c2c(C)cc3c(c2Nc2nnc(S(=O)(=O)c4ccccc4)[nH]2)CCC3)ccn1 [Example 319, N-(5-(2-methoxypyridin-4-yl)-6-methyl-2,3-dihydro-1H-inden-4-yl)-5-(phenylsulfonyl)-4H-1,2,4-triazol-3-amine] |
| ≥ 5.30 | ≥ 6.30 | CN(C)C(=O)Cn1ccc(S(=O)(=O)c2nnc(Nc3c4c(cc5c3CCC5)CCC4)[nH]2)n1 [Example 320, 2-(3-((5-((1,2,3,5,6,7-hexahydro-s-indacen-4-yl)amino)-4H-1,2,4-triazol-3-yl)sulfonyl)-1H-pyrazol-1-yl)-N,N-dimethylacetamide] |
| ≥ 5.00 | ≥ 6.30 | NS(=O)(=O)c1ccccc1S(=O)(=O)c1nnc(Nc2c3c(cc4c2CCC4)CCC3)[nH]1 [Example 325, 2-((5-((1,2,3,5,6,7-hexahydro-s-indacen-4-yl)amino)-4H-1,2,4-triazol-3-yl)sulfonyl)benzenesulfonamide] |
| ≥ 5.30 | ≥ 6.30 | COc1cc(-c2ccc3c(c2Nc2nnc(S(=O)(=O)c4cccc(CN(C)C)c4)[nH]2)CCC3)ccn1 [Example 329, 5-((3-((dimethylamino)methyl)-phenyl)sulfonyl)-N-(5-(2-methoxypyridin-4-yl)-2,3-dihydro-1H-inden-4-yl)-4H-1,2,4-triazol-3-amine] |
| ≥ 5.00 | ≥ 6.00 | CC(C)(O)[C@@H]1CCN(S(=O)(=O)c2nnc(Nc3c4c(cc5c3CCC5)CCC4)[nH]2)C1 [Example 330, (R)-2-(1-((5-((1,2,3,5,6,7-hexahydro-s-indacen-4-yl)amino)-4H-1,2,4-triazol-3-yl)sulfonyl)pyrrolidin-3-yl)propan-2-ol] |
| ≥ 5.30 | ≥ 5.30 | CN1CC2(CC1=O)CN(S(=O)(=O)c1nnc(Nc3c4c(cc5c3CCC5)CCC4)[nH]1)C2 [Example 331, 2-((5-((1,2,3,5,6,7-hexahydro-s-indacen-4-yl)amino)-4H-1,2,4-triazol-3-yl)sulfonyl)-6-methyl-2,6-diazaspiro[3.4]octan-7-one] |
| ≥ 5.30 | ≥ 6.00 | COc1cc(-c2ccc3c(c2Nc2nnc(S(=O)(=O)c4ccn(C)n4)[nH]2)CCC3)ccn1 [Example 339, N-(5-(2-methoxypyridin-4-yl)-2,3-dihydro-1H-inden-4-yl)-5-((1-methyl-1H-pyrazol-3-yl)sulfonyl)-4H-1,2,4-triazol-3-amine] |
| ≥ 5.00 | ≥ 6.30 | NC(=O)c1cccc(S(=O)(=O)c2nnc(Nc3c4c(cc5c3CCC5)CCC4)[nH]2)c1 [Example 341, 3-((5-((1,2,3,5,6,7-hexahydro-s-indacen-4-yl)amino)-4H-1,2,4-triazol-3-yl)sulfonyl)benzamide] |
| ≥ 6.00 | ≥ 6.30 | [2H]C([2H])([2H])Oc1cc(-c2ccc3c(c2Nc2nnc(S(=O)(=O)N4CC[C@H](C(C)(C)O)C4)[nH]2)CCO3)ccn1 [Example 343, (S)-2-(1-((5-((5-(2-(methoxy-d3)pyridin-4-yl)-2,3-dihydrobenzofuran-4-yl)amino)-4H-1,2,4-triazol-3-yl)sulfonyl)pyrrolidin-3-yl)propan-2-ol] |
| ≥ 5.30 | ≥ 6.30 | [2H]C([2H])([2H])Oc1cc(-c2ccc3c(c2Nc2nnc(S(=O)(=O)N4CC[C@H](C(C)(C)O)C4)[nH]2)CCC3)ccn1 [Example 344, (S)-2-(1-((5-((5-(2-(methoxy-d3)pyridin-4-yl)-2,3-dihydro-1H-inden-4-yl)amino)-4H-1,2,4-triazol-3-yl)sulfonyl)pyrrolidin-3-yl)propan-2-ol] |
| ≥ 5.00 | ≥ 6.00 | O=S(=O)(c1nnc(Nc2c3c(cc4c2CCC4)CCC3)[nH]1)N1CC[C@H](C2(O)CC2)C1 [Example 345, (S)-1-(1-((5-((1,2,3,5,6,7-hexahydro-s-indacen-4-yl)amino)-4H-1,2,4-triazol-3-yl)sulfonyl)pyrrolidin-3-yl)cyclopropanol] |
